From patent US20210260051A1, “COMBINATION OF EZH2 INHIBITOR AND CHECKPOINT THERAPY FOR THE TREATMENT OF CANCER” (Board of Regents, The University of Texas System, priority 2018, published 2021)

Assays:
[1] = system: inducible regulatory T cells; assay: Luminex-based cytokine analysis of iTreg culture supernatant; assay type: cell-based, mouse; conditions: iTregs differentiated with vs without CPI-1205; FIG. 5C
Text: FIGS. 5A-5C: Naïve T cells from FoxP3enhanced green fluorescent protein (eGFP) C57BL/6 mice that were differentiated into iTregs in the presence or absence of CPI-1205. GFP^+FoxP3^+ regulatory T cells were subsequently used for RNA sequencing analysis. (FIG. 5A) Ingenuity Pathway Analysis of RNA sequencing data of regulatory T cells differentiated in the presence of DMSO or CPI-1205. (FIG. 5B) Differentially expressed genes (DEGs) seen following differentiation of inducible regulatory T cells in presence of CPI-1205 or DMSO. (FIG. 5C) Luminex-based cytokine analysis of culture supernatant from inducible regulatory T cells following differentiation with CPI-1205 or DMSO. 2 tailed student t test was used to determine significance; NS, not significant. **p<0.01.
To understand CPI-1205-mediated molecular changes underlying the loss of suppressive activity of regulatory T cells, naïve murine T cells (CD4^+CD25^low CD44^low CD62^hi) from FoxP3-enhanced green fluorescent protein (eGFP) C57BL/6 mice were differentiated into iTregs in the presence or absence of CPI-1205. Purified GFP^+FoxP3^+ regulatory T cells were subsequently used for RNA sequencing analysis. […] The cytokine levels were subsequently examined in the culture supernatant of the iTregs that were differentiated with and without CPI-1205. […]

MB49 tumor = assay: MB49 tumor-bearing Rag1-/- mice; assay type: in vivo, mouse; conditions: compared with the untreated group
Text: FIGS. 3A-3F: Blocking expression of EZH2 mediated by anti-CTLA-4 using CPI-1205 increases the effectiveness of anti-CTLA-4 therapy. Tumor growth (FIG. 3A), survival (FIG. 3B) and percentages of intra-tumoral CD4^+CD25^+FoxP3^+ regulatory T cells, CD4^+ICOS^+T-bet^+ and CD8^+IFNγ^+ cells (FIG. 3C) in MB49 tumor-bearing mice treated with vehicle, anti CTLA-4, CPI-1205, or the combination. Tumor growth (FIG. 3D) and percentages of CD4^+IFNγ^+ cells and CD8^+TNFα^+ cells in the lymph nodes (LN) (FIG. 3E) of MB49 tumor-bearing Ezh2^fl/+ and FoxP3^CreEzh2^fl/fl mice treated with anti-CTLA-4 on days 7 and 9. (FIG. 3F) Tumor growth and survival of MB49 tumor-bearing Rag-1^−/− mice treated with vehicle or CPI-1205. Data are representative of three independent experiments (n=10 in each group; one-way ANOVA was used to determine significance between the groups. **p<0.01).
To determine whether the anti-tumoral effect of combination therapy is exclusively due to effector immune response or is an additive effect of CPI-1205 on tumor cells, Rag 1^−/− C57BL/6 mice were used, which have no mature lymphocyte population. MB49 tumor-bearing Ragl^−/− mice were treated with CPI-1205.
Mice. C57BL/6 (5-7 weeks) mice were purchased from the National Cancer Institute (Frederick, Md.). […]

[2] = system: CXCL9 and CXCL10 in MB49 tumor; assay: relative CXCL9 and CXCL10 expression in tumor of MB49 tumor-bearing mice; assay type: in vivo, mouse; conditions: FIG. 10C-D
[3] = system: murine inducible regulatory T cell (iTreg) differentiation; assay: in vitro differentiation of murine naïve CD4 T cells into inducible regulatory T cells with EZH2 inhibitors; assay type: cell-based, mouse; conditions: compared with the other EZH2 inhibitors; FIG. 4A
Text: FIGS. 4A-B: (FIG. 4A) Percentages of inducible regulatory T cells following in vitro differentiation of murine naïve CD4 T cells into regulatory T cells in the presence and absence of various EZH2 inhibitors. (FIG. 4B) Representative counts of viable cells in culture following treatment with EZH2 inhibitors. Data is representative of three independent experiments. One-way ANOVA was used to determine significance between the groups. **p<0.01.
To investigate whether the data observed in the FoxP3^creEZH2^fl/fl mouse model could be recapitulated by pharmacological inhibition of EZH2 in T cells, the effect of different EZH2 inhibitors on regulatory T cell differentiation was compared. CPI-1205 was compared with commercially available EZH2 inhibitors.
In vitro T cell assays. Human peripheral regulatory T cells were isolated from peripheral blood mononuclear cells by enriching for CD4^+CD127^low CD25^+ cells using the EasySep Human Regulatory T Cell Isolation Kit (STEMCELL Technologies, Cambridge, Mass.). For mouse in vitro regulatory T cell differentiation, CD4^+CD25^low CD44^low CD62L^hinaïve splenic T cells were isolated from C57BL/6 mice using BD FACSAria (BD Biosciences, San Jose, Calif.). The cells were then differentiated in the presence of recombinant murine IL-2 (R&D, 402-ML), tumor growth factor-β (TGF-β, R&D 7666-MB), CPI-1205 or dimethyl sulfoxide (DMSO) and cultured for 6 days.

SMILES: COc1cc(C)[nH]c(=O)c1CNC(=O)c1c(C)n([C@H](C)C2CCN(CC(F)(F)F)CC2)c2ccccc12 [CPI-1205, N-[(4-methoxy-6-methyl-2-oxo-1H-pyridin-3-yl)methyl]-2-methyl-1-[(1R)-1-[1-(2,2,2-trifluoroethyl)piperidin-4-yl]ethyl]indole-3-carboxamide]
- pro-inflammatory cytokines in the culture supernatant [1]: significantly increased
- survival (MB49 tumor): No significant difference
- tumor growth (MB49 tumor): No significant difference
- CXCL9 expression in tumor [2]: increased
- CXL10 expression in tumor [2]: increased
- suppression of murine inducible regulatory T cell (iTreg) differentiation [3]: most striking effect
